In US6153740A, “cDNA encoding nucleoside transporter” (University of Alberta, priority 1997, dated 2000):

Experiments:
[1] = system: cit transporter; conditions: Terasaki et al, 1993; cited from earlier work
[2] = cited from earlier work
[3] = system: human erythrocytes; conditions: cited from earlier work
[4] = system: rat jejunum; experiment: uptake of [3H]AZT by rat jejunum in vivo
[5] = target: T1, hCNT1a (Homo sapiens, UniProt O00337); experiment: influx of radiolabelled nucleosides in Xenopus oocytes injected with hCNT1a RNA transcript; conditions: for mediated flux, hCNT1a: 10 μM permeant (FIG. 14); for mediated influx, hCNT1a (adenosine/deoxyadenosine comparison): separate experiment, inset FIG. 14A
T1 sequence (O00337 with tags, fused parts or gaps E34G/INS140V): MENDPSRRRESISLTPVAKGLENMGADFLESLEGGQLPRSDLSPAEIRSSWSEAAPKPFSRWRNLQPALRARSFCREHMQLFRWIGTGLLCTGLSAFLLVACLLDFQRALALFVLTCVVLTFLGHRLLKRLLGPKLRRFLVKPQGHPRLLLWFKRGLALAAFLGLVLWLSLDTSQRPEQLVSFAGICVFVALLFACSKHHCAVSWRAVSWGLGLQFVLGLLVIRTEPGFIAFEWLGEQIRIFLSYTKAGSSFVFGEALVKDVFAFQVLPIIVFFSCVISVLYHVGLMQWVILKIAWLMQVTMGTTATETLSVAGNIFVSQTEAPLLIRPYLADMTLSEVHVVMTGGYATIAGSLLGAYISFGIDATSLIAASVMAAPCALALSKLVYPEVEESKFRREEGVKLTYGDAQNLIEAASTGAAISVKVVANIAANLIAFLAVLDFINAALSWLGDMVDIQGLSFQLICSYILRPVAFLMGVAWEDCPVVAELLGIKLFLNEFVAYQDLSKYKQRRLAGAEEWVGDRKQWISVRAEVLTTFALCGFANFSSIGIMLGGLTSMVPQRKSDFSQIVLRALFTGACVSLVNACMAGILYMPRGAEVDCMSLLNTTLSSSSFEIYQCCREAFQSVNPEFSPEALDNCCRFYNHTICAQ
Description: Oocytes were injected with either water alone or water containing hCNT1a RNA transcript.
Oocytes were injected with either water alone (.tangle-solidup.) or water containing hCNT1a RNA transcript (.smallcircle.,.circle-solid.).
Adenosine, guanosine and AZT (10 μM) fluxes were compared in the same batch of oocytes injected either with water (open columns) or with RNA transcript for hCNT1a or rCNT1 (hatched and solid columns, respectively).
(§3) Defolliculated oocytes (Huang et al. 1993) were injected with either 10 nl of water containing 10 ng RNA transcript or 10 nl of water alone. Nucleoside uptake was measured after 3 d and was traced with the respective [^3 H] or [^14 C]nucleoside (Moravek Biochemicals)(5 μC 3H/ml, 1 μC 14C/ml). […] The transport buffer for adenosine influx experiments contained 1 μM deoxycoformycin to inhibit adenosine deaminase activity. Results are presented as means ±SEM for 10-12 individual oocytes. Kinetic constants were determined by non-linear regression analysis (ENZFITTER, Elsevier-Biosoft). Each experiment was performed at least twice on different batches of oocytes.

[6] = system: kidney; conditions: humans, mice (adenosine also rat); cited from earlier work
[7] = target: T1, hCNT1a; experiment: inhibition of hCNT1a-mediated influx of [3H]uridine in Xenopus oocytes
Description: (§4) H2 O, water-injected oocytes. Fluxes were not corrected for the contribution of endogenous transport activity.
as §3

[8] = target: T2, CNT1 (Rattus norvegicus, UniProt Q62674); conditions: cited from earlier work
T2 sequence (Q62674 1-648): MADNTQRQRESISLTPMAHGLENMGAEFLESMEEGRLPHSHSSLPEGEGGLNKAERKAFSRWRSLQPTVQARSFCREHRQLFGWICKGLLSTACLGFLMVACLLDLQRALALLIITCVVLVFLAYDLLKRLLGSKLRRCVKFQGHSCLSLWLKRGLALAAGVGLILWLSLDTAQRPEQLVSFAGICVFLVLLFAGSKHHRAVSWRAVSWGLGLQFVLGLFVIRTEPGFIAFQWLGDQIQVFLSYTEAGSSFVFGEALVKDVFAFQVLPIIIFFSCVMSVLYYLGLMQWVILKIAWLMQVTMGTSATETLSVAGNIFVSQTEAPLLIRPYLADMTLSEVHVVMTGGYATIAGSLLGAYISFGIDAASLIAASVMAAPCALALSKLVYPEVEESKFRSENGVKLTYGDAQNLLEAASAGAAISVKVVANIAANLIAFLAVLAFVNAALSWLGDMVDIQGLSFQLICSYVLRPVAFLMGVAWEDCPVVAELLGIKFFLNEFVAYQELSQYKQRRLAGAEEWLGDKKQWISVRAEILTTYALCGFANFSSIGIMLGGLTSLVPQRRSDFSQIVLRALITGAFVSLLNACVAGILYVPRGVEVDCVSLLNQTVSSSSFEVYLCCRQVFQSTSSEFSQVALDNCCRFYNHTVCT

[9] = target: T3, hCNT1b (Homo sapiens, UniProt O00337); experiment: inhibition of hCNT1b-mediated influx of [3H]uridine in Xenopus oocytes; assay type: cell-based; conditions: uridine 10 μM
T3 sequence (O00337 2-649 V189I/N409S/D521N): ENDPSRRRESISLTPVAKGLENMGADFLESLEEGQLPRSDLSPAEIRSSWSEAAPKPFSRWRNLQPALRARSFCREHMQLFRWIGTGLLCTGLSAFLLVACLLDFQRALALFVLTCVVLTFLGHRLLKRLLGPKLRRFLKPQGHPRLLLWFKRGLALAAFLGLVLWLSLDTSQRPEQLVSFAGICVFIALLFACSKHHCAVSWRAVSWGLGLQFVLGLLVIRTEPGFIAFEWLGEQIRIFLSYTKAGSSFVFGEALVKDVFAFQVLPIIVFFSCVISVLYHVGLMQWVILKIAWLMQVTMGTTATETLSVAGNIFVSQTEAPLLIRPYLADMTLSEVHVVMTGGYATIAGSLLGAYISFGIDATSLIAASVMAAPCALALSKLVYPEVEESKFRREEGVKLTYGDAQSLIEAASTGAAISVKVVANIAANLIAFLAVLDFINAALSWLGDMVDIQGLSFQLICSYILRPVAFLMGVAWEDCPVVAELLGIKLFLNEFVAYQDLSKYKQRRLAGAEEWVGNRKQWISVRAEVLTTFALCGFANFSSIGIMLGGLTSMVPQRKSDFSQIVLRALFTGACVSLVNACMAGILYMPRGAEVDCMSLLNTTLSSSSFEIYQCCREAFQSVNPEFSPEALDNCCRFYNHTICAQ
Excerpt: H2 O, water-injected oocytes.

[10] = system: human erythrocyte es transporter; conditions: cited from earlier work
[11] = target: T2, CNT1; experiment: inhibition of CNT1-mediated nucleoside (uridine, AZT, ddC) transport in Xenopus oocytes; assay type: cell-based
Description: (§1) Oocytes were injected with water or RNA transcribed in vitro from the nucleoside transporter cDNA (pQQH1). […] For panels c and d, the permeant concentration was 10 μM and competing nonradioactive nucleosides were present at a concentration of 1 mM.
(§2) Remaining template was removed by digestion with RQ1 DNase. Oocytes were treated with collagenase to remove follicular layers (Huang et al, 1993) and injected with 10 ng of pQQH1 cRNA or water. […] At the end of the incubation, extracellular label was removed by six rapid ice-cold washes in the appropriate transport buffer. Individual oocytes were dissolved in 5% SDS for quantitation of oocyte-associated ^3 H by liquid scintillation counting (LS 6000 IC, Beckman).

[12] = target: T2, CNT1; experiment: uptake/influx of radiolabelled nucleosides in Xenopus oocytes injected with pQQH1 (rat CNT1) cRNA; assay type: cell-based; conditions: for mediated flux, rCNT1: 10 μM permeant (FIG. 14); for mediated influx, rCNT1 (adenosine/deoxyadenosine comparison): separate experiment, inset FIG. 14A
Description: as §1
Oocytes injected with water or in vitro transcribed RNA from pQQH1 were incubated with radiolabeled permanent (10 μM) for 30 min (open columns) or 1 h (hatched columns) at 20° C. Each value represents the mean ±S. E. of 8-10 ooctyes.
as §2

[13] = target: T2, CNT1; experiment: inhibition of CNT1-mediated nucleoside (uridine, AZT, ddC) transport in Xenopus oocytes; assay type: cell-based; conditions: 1 μM
[14] = system: ei transporters; conditions: Paterson et al, 1991; cited from earlier work
[15] = system: isolated perfused rat kidneys; conditions: secreted at higher concentrations; Trimble and Coulson, 1984; cited from earlier work
[16] = target: T2, CNT1; conditions: Yao et al. unpublished; read-out: inhibition constant, recombinant rCNT1; cited from earlier work
[17] = target: T1, hCNT1a; experiment: cell-based
Description: as §4, §3

[18] = substrate: O=c1ccn([C@@H]2O[C@H](CO)[C@@H](O)[C@H]2O)c(=O)[nH]1; experiment: cells, lysate or membranes; conditions: other: rat CNT1, 20° C., pH 7.5
[19] = substrate: Nc1ccn([C@H]2CC[C@@H](CO)O2)c(=O)n1; experiment: uptake/influx of radiolabelled nucleosides in Xenopus oocytes injected with pQQH1 (rat CNT1) cRNA; assay type: cell-based; conditions: other: rate versus concentration studies, pH 7.5, 20.0 °C
Description: Oocytes were injected with water or RNA transcribed in vitro from the nucleoside transporter cDNA (pQQH1). Each value represents the mean ±S.E. of 8-10 oocytes. […] Apparent Km and Vmax values were determined by non-linear regression analysis (ENZFITTER, Elsevier-Biosoft). […] Panel d: thymidine transport in oocytes injected with pQQH1 cRNA. For panels c and d, the permeant concentration was 10 μM and competing nonradioactive nucleosides were present at a concentration of 1 mM. Fluxes were not corrected for the small (<0.1%) contribution of endogenous activity. […]
Expression of cNT1 in Oocytes-Plasmid pQQH1 DNA was linearized with Xbal and transcribed with T7 polymerase in the presence of the m^7 GpppG cap using the MEGAscript (Ambion) transcription system. […] Nucleoside uptake was measured after 3 days and was traced with the respective ^3 H-labeled nucleoside (Moravek Biochemicals)(20 μC/ml), which was purified by high performance liquid chromatography before use. […] Individual oocytes were dissolved in 5% SDS for quantitation of oocyte-associated ^3 H by liquid scintillation counting (LS 6000 IC, Beckman).
Defolliculated oocytes (Huang et al. 1993) were injected with either 10 nl of water containing 10 ng RNA transcript or 10 nl of water alone. Nucleoside uptake was measured after 3 d and was traced with the respective [^3 H] or [^14 C]nucleoside (Moravek Biochemicals)(5 μC 3H/ml, 1 μC 14C/ml). […]

[20] = Fang et al, 1996, Yao et al. unpublished

Cc1cn([C@H]2C[C@H](N=[N+]=[N-])[C@@H](CO)O2)c(=O)[nH]c1=O [AZT, 3'-azido-3'-deoxythymidine]
cit-mediated uridine transport, inhibition [1]: inhibited | excretion in the urine ([2]; Good et al. 1990, Griffiths et al. 1992): excreted in the urine either unchanged or as the glucuronide conjugate | absorption by the gastrointestinal systems of humans and rats ([2]; oral): absorbed efficiently | rate of entry into human erythrocytes relative to those of thymidine and cytidine [3]: < 2% | uptake of [3H]AZT by rat jejunum in vivo [4]: Na^+ -dependent | transport by hCNT1 [5]: transport | mediated flux, hCNT1a [5]: 4.79±0.41 pmol/oocyte.10 min^-1 | net renal handling [6]: net renal secretion | inhibition of hCNT1a-mediated influx of uridine ([7]; uridine 10 μM, analog 5 mM (FIG. 12A)): inhibited | transport by recombinant rCNT1 in oocytes ([8]; Yao et al. in press): transports AZT | inhibition of hCNT1b-mediated influx of uridine ([9]; analog 5 mM (FIG. 12B)): inhibited | transport by equilibrative nucleoside transporters [10]: not transported | IC50 [11]: < 1000 µM | CNT1-mediated uptake/transport ([12]; 10 μM permeant): large increases | mediated flux, rCNT1 [12]: 4.10±0.34 pmol/oocyte.10 min^-1 | Na+ dependence of initial rate of expressed uptake ([12]; 10 μM, 10-min flux): 77% | Vmax ([12]; rat CNT1, permeant = labelled substance): 28 pmol/oocyte.min^-1 | Km ([12]; rate versus concentration studies, rat CNT1, read-out: apparent Km): 490 µM

O=[N+]([O-])c1ccc(CSc2ncnc3c2ncn3[C@@H]2O[C@H](CO)[C@@H](O)[C@H]2O)cc1 [NBMPR, 6-[(4-nitrobenzyl)thio]-9-p-D-ribofuranosylpurine]
effect on CNT1 transport [13]: unaffected | inhibition of equilibrative nucleoside transport in human erythrocytes, concentrations ([10]; Young and Jarvis, 1983, Paterson et al): namomolar concentrations | sensitivity of ei systems to inhibition [14]: low (micromolar) sensitivity

Nc1ncnc2c1ncn2[C@@H]1O[C@H](CO)[C@@H](O)[C@H]1O [adenosine]
plasma concentration at which adenosine is reabsorbed [15]: less than 50 μM | uridine:adenosine flux ratio, hCNT1a ([5]; 10 μM): 75 | mediated flux, hCNT1a [5]: 0.49±0.03 pmol/oocyte.10 min^-1 | mediated influx, hCNT1a (adenosine/deoxyadenosine comparison) ([5]; 10 μM): 0.60±0.01 pmol/oocyte.10 min^-1 | net renal handling [6]: net renal reabsorption | Ki [16]: 29 µM | Ki [7]: 50 ± 11 µM | inhibition of uridine fluxes, hCNT1a ([7]; uridine 10 μM, competitor 1 mM (FIG. 12A), guanosine also in FIG. 13): inhibited | Vmax relative to uridine, recombinant rCNT1 [8, 20]: lower Vmax | affinity of transport by recombinant rCNT1 [8, 20]: same high affinity as uridine | inhibition of uridine fluxes, hCNT1b ([9]; competitor 1 mM (FIG. 12B)): inhibited | selective inhibition of uridine and thymidine fluxes (rCNT1) ([11]; adenosine, thymidine, cytidine, uridine>>guanosine, inosine): selective inhibition | uridine:adenosine flux ratio, rCNT1 ([12]; 10 μM): 110 | mediated flux, rCNT1 [12]: 0.51±0.05 pmol/oocyte.10 min^-1 | mediated influx, rCNT1 (adenosine/deoxyadenosine comparison) ([12]; 10 μM): 0.70±0.0 pmol/oocyte.10 min^-1

Nc1ncnc2c1ncn2[C@H]1C[C@H](O)[C@@H](CO)O1 [deoxyadenosine, 2'-deoxyadenosine]
permeant quality, hCNT1 [5]: poor hCNT1 permeants | mediated influx, hCNT1a (adenosine/deoxyadenosine comparison) ([5]; 10 μM): 0.14±0.02 pmol/oocyte.10 min^-1 | net renal handling [6]: net renal secretion | Ki [17]: 46 ± 14 µM | mediated influx, rCNT1 (adenosine/deoxyadenosine comparison) ([12]; 10 μM): 0.11±0.02 pmol/oocyte.10 min^-1

B1: CNT1 (Rattus norvegicus) (protein)
chain: MADNTQRQRESISLTPMAHGLENMGAEFLESMEEGRLPHSHSSLPEGEGGLNKAERKAFSRWRSLQPTVQARSFCREHRQLFGWICKGLLSTACLGFLMVACLLDLQRALALLIITCVVLVFLAYDLLKRLLGSKLRRCVKFQGHSCLSLWLKRGLALAAGVGLILWLSLDTAQRPEQLVSFAGICVFLVLLFAGSKHHRAVSWRAVSWGLGLQFVLGLFVIRTEPGFIAFQWLGDQIQVFLSYTEAGSSFVFGEALVKDVFAFQVLPIIIFFSCVMSVLYYLGLMQWVILKIAWLMQVTMGTSATETLSVAGNIFVSQTEAPLLIRPYLADMTLSEVHVVMTGGYATIAGSLLGAYISFGIDAASLIAASVMAAPCALALSKLVYPEVEESKFRSENGVKLTYGDAQNLLEAASAGAAISVKVVANIAANLIAFLAVLAFVNAALSWLGDMVDIQGLSFQLICSYVLRPVAFLMGVAWEDCPVVAELLGIKFFLNEFVAYQELSQYKQRRLAGAEEWLGDKKQWISVRAEILTTYALCGFANFSSIGIMLGGLTSLVPQRRSDFSQIVLRALITGAFVSLLNACVAGILYVPRGVEVDCVSLLNQTVSSSSFEVYLCCRQVFQSTSSEFSQVALDNCCRFYNHTVCT
notes: identified as pQQH1, has an open reading frame encoding a 648-amino acid protein; expressed in transfected cells; host or cells: Xenopus oocytes injected with pQQH1 cRNA
Km [18]: 37 µM | Km [19]: 510 µM
